Measurements taken from patent US9850283B2, “Macrocyclic inhibitors of the PD-1/PD-L1 and CD80(B7-1)/PD-L1 protein/protein interactions” (BRISTOL-MYERS SQUIBB COMPANY, priority 2013, dated 2017).
pIC50: −log10 of the molar value. Where two headings read alike, the source gives them in different places. Positions of bridges follow the written chain, without caps; N, C: chain ends. Non-standard residues stand in square brackets, D forms with d. Residues, ends and D or L forms follow the SMILES beside them. ξ: configuration not given here. *: point of attachment. Ala(benzothiazol-2-yl) = N[C@@H](Cc1nc2ccccc2s1)C(=O)O; Phe(4-CF3) = N[C@@H](Cc1ccc(C(F)(F)F)cc1)C(=O)O; Trp(7-aza) = N[C@@H](Cc1c[nH]c2ncccc12)C(=O)O; Cyclohexanecarbonyl = O=C(C1CCCCC1)*; Bta = N[C@@H](Cc1csc2ccccc12)C(=O)O; Hyp = O=C(O)[C@@H]1C[C@@H](O)CN1; NMeF = CN[C@@H](Cc1ccccc1)C(=O)O; NMeNle = CCCC[C@H](NC)C(=O)O; Pip = O=C(O)[C@@H]1CCCCN1; NMeA = CN[C@@H](C)C(=O)O; Orn = NCCC[C@H](N)C(=O)O; Dab = NCC[C@H](N)C(=O)O; Dap = NC[C@H](N)C(=O)O; Bn = c1ccc(C*)cc1; ξC = NC(CS)C(=O)O; Sar = CNCC(=O)O

Tests used:
[1] = target: T1, Human PD-L1/PD-1 (Homo sapiens, UniProt Q9NZQ7); assay: HTRF PD-1-Ig/PD-L1-His binding assay (human PD-L1); conditions: cluster symbol; read-out: HTRF IC50 cluster
T1 construct: made in house; host or cells: HEK293T
T1 sequence (Q9NZQ7 with tags, fused parts or gaps): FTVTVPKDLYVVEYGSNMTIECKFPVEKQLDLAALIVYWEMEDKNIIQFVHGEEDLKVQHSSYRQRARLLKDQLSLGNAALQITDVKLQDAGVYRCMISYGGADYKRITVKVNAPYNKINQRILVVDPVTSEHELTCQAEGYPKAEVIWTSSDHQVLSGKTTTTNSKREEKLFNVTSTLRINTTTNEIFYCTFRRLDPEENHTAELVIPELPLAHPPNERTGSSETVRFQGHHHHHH
How it was run: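 Readout: time-resolved FRET between Eu cryptate-labeled anti-Ig (1 nM final) and APC-labeled anti-His (20 nM final) antibodies. These detect interaction of Fc-fused PD-1 with His-tagged human PD-L1 in dPBS containing 0.1% BSA and 0.05% Tween-20.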

[2] = target: T2, LK35.2-hPD-L1 cells / PE-labeled PD-1-Ig (Homo sapiens, UniProt Q9NZQ7); assay: LK35.2-hPD-L1 cell binding high-content screening assay; format: cell-based; conditions: cluster symbol, read-out: CBA IC50 cluster
T2 construct: expressed in transfected cells; host or cells: LK35.2 mouse B cell line
T2 sequence (Q9NZQ7 19-290): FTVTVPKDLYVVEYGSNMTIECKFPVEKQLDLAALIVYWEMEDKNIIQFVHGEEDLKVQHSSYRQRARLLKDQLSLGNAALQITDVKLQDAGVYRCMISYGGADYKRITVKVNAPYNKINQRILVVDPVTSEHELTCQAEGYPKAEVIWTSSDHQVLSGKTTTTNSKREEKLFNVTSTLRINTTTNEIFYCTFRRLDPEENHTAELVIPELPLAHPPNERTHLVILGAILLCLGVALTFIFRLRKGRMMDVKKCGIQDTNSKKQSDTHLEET
How it was run: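 Binding of PE-conjugated human PD-1-Ig (1 nM final) to human PD-L1 stably expressed on a mouse B-cell line (LK35.2) was measured by high-content imaging after washes. Compound and labeled PD-1-Ig were co-incubated 1 h at 37 °C with cells in RPMI/10% FCS.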

[3] = cell line of CBA not given (LK35.2-hPD-L1 or 293T-hPD-L1)
[4] = cell binding assay, cell line not given

SMILES: CCCC[C@H]1C(=O)N(C)[C@@H](CCCC)C(=O)N[C@@H](CCCNC(=N)N)C(=O)N[C@H](C(=O)NCC(N)=O)CSCC(=O)N[C@@H](Cc2ccccc2)C(=O)N(C)[C@@H](C)C(=O)N[C@@H](CC(N)=O)C(=O)N2CCC[C@H]2C(=O)N[C@@H](Cc2cnc[nH]2)C(=O)N[C@@H](CC(C)C)C(=O)N(C)CC(=O)N[C@@H](Cc2c[nH]c3ccccc23)C(=O)N[C@@H](CO)C(=O)N[C@@H](Cc2c[nH]c3ncccc23)C(=O)N1C [Example 1038] ({CH2CO}-F[NMeA]NPHL[Sar]WS[Trp(7-aza)][NMeNle][NMeNle]RCG-NH2; thioether N-14)
- pIC50 [1]: < 7.52
- pIC50 [2, 3]: < 7.13

SMILES: CCCC[C@H]1C(=O)N(C)[C@@H](CCCC)C(=O)N[C@@H](CCCNC(=N)N)C(=O)N[C@H](C(=O)NCC(N)=O)CSCC(=O)N[C@@H](Cc2ccc(OC)cc2)C(=O)N(C)[C@@H](C)C(=O)N[C@@H](CC(N)=O)C(=O)N2CCC[C@H]2C(=O)N[C@@H](Cc2cnc[nH]2)C(=O)N[C@@H](CC(C)C)C(=O)N2C[C@H](O)C[C@H]2C(=O)N[C@@H](Cc2c[nH]c3ccccc23)C(=O)N[C@@H](CO)C(=O)N[C@@H](Cc2c[nH]c3ccccc23)C(=O)N1C [Example 7060]
- pIC50 [1]: 8.17 to 9.41
- pIC50 [2, 4]: 8.33 to 9.80

SMILES: CCCC[C@H]1C(=O)N(C)[C@@H](CCCC)C(=O)N[C@@H](C)C(=O)N[C@H](C(=O)NCC(N)=O)CSCC(=O)N[C@@H](Cc2ccc(O)cc2)C(=O)N(C)[C@@H](C)C(=O)N[C@@H](CC(=O)O)C(=O)N2CCC[C@H]2C(=O)N[C@@H](Cc2cnc[nH]2)C(=O)N[C@@H](CC(C)C)C(=O)N2CCC[C@H]2C(=O)N[C@@H](Cc2c[nH]c3ccccc23)C(=O)N[C@@H](CO)C(=O)N[C@@H](Cc2c[nH]c3ccccc23)C(=O)N1C [Example 1121] ({CH2CO}-Y[NMeA]DPHLPWSW[NMeNle][NMeNle]ACG-NH2; thioether N-14)
- pIC50 [1]: 7.52 to 8.17
- pIC50 [2, 3]: 8.33 to 9.80

SMILES: CCCC[C@H]1C(=O)N[C@@H](CCCNC(=N)N)C(=O)N[C@H](C(=O)NCC(N)=O)CSCC(=O)N[C@@H](Cc2ccccc2)C(=O)N(C)[C@@H](C)C(=O)N[C@@H](CC(N)=O)C(=O)N2CCC[C@H]2C(=O)N[C@@H](Cc2cnc[nH]2)C(=O)N[C@@H](CC(C)C)C(=O)N(C)CC(=O)N[C@@H](Cc2c[nH]c3ccccc23)C(=O)N[C@@H](CO)C(=O)N[C@@H](Cc2c[nH]c3ccccc23)C(=O)N[C@@H](CNC(=O)C2CCCCC2)C(=O)N1C [Example 1017] ({CH2CO}-F[NMeA]NPHL[Sar]WSW[Dap](Cyclohexanecarbonyl)[NMeNle]RCG-NH2; thioether N-14)
- pIC50 [1]: < 7.52
- pIC50 [2, 3]: < 7.13

SMILES: CCCC[C@H]1C(=O)N(C)[C@@H](CCCC)C(=O)N[C@@H](CCCNC(=N)N)C(=O)N[C@H](C(=O)NCC(N)=O)C/C=C/C(=O)N[C@@H](Cc2ccc(O)cc2)C(=O)N(C)[C@@H](C)C(=O)N[C@@H](CC(N)=O)C(=O)N2CCCC2C(=O)N[C@@H](CN)C(=O)N[C@@H](CC(C)C)C(=O)N2C[C@H](O)C[C@H]2C(=O)N[C@@H](Cc2c[nH]c3ccccc23)C(=O)N[C@@H](CO)C(=O)N[C@@H](Cc2c[nH]c3ccccc23)C(=O)N1C (stereo partly shown) [Example 7013]
- pIC50 [1]: 7.52 to 8.17
- pIC50 [2, 4]: 7.14 to 8.32

SMILES: CCCC[C@H]1C(=O)N(C)[C@@H](CCCC)C(=O)N[C@@H](CC(C)C)C(=O)N[C@H](C(=O)NCC(N)=O)CSCC(=O)N[C@@H](Cc2ccc(O)cc2)C(=O)N(C)[C@@H](C)C(=O)N[C@@H](CC(N)=O)C(=O)N2CCC[C@H]2C(=O)N[C@@H](CN)C(=O)N[C@@H](CC(C)C)C(=O)N2CCC[C@H]2C(=O)N[C@@H](Cc2c[nH]c3ccccc23)C(=O)N[C@@H](CCN)C(=O)N[C@@H](Cc2c[nH]c3ccccc23)C(=O)N1C [Example 6040] ({CH2CO}-Y[NMeA]NP[Dap]LPW[Dab]W[NMeNle][NMeNle]LCG-NH2; thioether N-14)
- pIC50 [1]: 8.17 to 9.41
- pIC50 [2, 4]: 8.33 to 9.80

SMILES: CCCC[C@H]1C(=O)N(C)[C@@H](CCCC)C(=O)N[C@@H](CCCN)C(=O)N[C@H](C(=O)NCC(N)=O)CSCC(=O)N[C@@H](Cc2ccc(O)cc2)C(=O)N2CCCC[C@H]2C(=O)N[C@@H](CC(N)=O)C(=O)N2CCC[C@H]2C(=O)N[C@@H](Cc2cnc[nH]2)C(=O)N[C@@H](CCC(=O)O)C(=O)N2C[C@H](O)C[C@H]2C(=O)N[C@@H](Cc2c[nH]c3ccccc23)C(=O)N[C@@H](CO)C(=O)N[C@@H](Cc2c[nH]c3ccccc23)C(=O)N1C [Example 1234] ({CH2CO}-Y[Pip]NPHE[Hyp]WSW[NMeNle][NMeNle][Orn]CG-NH2; thioether N-14)
- pIC50 [1]: 7.52 to 8.17
- pIC50 [2, 3]: 8.33 to 9.80

SMILES: CCCC[C@H]1C(=O)N(C)[C@@H](CCCC)C(=O)N[C@@H](CCCNC(=N)N)C(=O)N[C@H](C(=O)NCC(N)=O)CSCC(=O)N[C@@H](Cc2ccc(O)cc2)C(=O)N(C)[C@@H](C)C(=O)N[C@@H](CC(N)=O)C(=O)N2CCC[C@H]2C(=O)N[C@@H](Cc2cnc[nH]2)C(=O)N[C@@H](CC(C)C)C(=O)N2CCC[C@H]2C(=O)N[C@@H](Cc2c[nH]c3ccccc23)C(=O)N[C@@H](CO)C(=O)N[C@@H](Cc2nc3ccccc3s2)C(=O)N1C [Example 1129] ({CH2CO}-Y[NMeA]NPHLPWS[Ala(benzothiazol-2-yl)][NMeNle][NMeNle]RCG-NH2; thioether N-14)
- pIC50 [1]: < 7.52
- pIC50 [2, 3]: < 7.13

SMILES: CCCC[C@H]1C(=O)N(C)[C@@H](CCCC)C(=O)N[C@@H](CCCNC(=N)N)C(=O)NC(C(=O)N[C@@H](CO)C(N)=O)CSCC(=O)N[C@@H](Cc2ccc(O)cc2)C(=O)N(C)[C@@H](C)C(=O)N[C@@H](CC(N)=O)C(=O)N2CCC[C@H]2C(=O)N[C@@H](Cc2cnc[nH]2)C(=O)N[C@@H](CO)C(=O)N2C[C@H](O)C[C@H]2C(=O)N[C@@H](Cc2c[nH]c3ccccc23)C(=O)N[C@@H](CO)C(=O)N[C@@H](Cc2csc3ccccc23)C(=O)N1C (stereo partly shown) [Example 9078] ({CH2CO}-Y[NMeA]NPHS[Hyp]WS[Bta][NMeNle][NMeNle]R[ξC]S-NH2; thioether N-14)
- pIC50 [1]: 7.52 to 8.17
- pIC50 [2, 4]: 8.33 to 9.80

SMILES: CCCC[C@H]1C(=O)N(C)[C@@H](CCCC)C(=O)N[C@@H](CCCNC(=N)N)C(=O)N[C@H](C(=O)NCC(N)=O)CSCC(=O)N[C@@H](Cc2ccc(O)cc2)C(=O)N(C)[C@@H](C)C(=O)N[C@@H](CCC(=O)O)C(=O)N2CCC[C@H]2C(=O)N[C@@H](Cc2cnc[nH]2)C(=O)N[C@@H](CC(C)C)C(=O)N2C[C@H](O)C[C@H]2C(=O)N[C@@H](Cc2c[nH]c3ccccc23)C(=O)N[C@@H](CO)C(=O)N[C@@H](Cc2c[nH]c3ccccc23)C(=O)N1C [Example 1175] ({CH2CO}-Y[NMeA]EPHL[Hyp]WSW[NMeNle][NMeNle]RCG-NH2; thioether N-14)
- pIC50 [1]: 8.17 to 9.41
- pIC50 [2, 3]: 7.14 to 8.32

SMILES: CCCC[C@H]1C(=O)N(C)[C@@H](CCCC)C(=O)N[C@@H](CCC(=O)O)C(=O)N[C@H](C(=O)NCC(N)=O)CSCC(=O)N[C@@H](Cc2ccc(O)cc2)C(=O)N(C)[C@@H](C)C(=O)N[C@@H](CC(=O)O)C(=O)N2CCC[C@H]2C(=O)N[C@@H](Cc2c[nH]cn2)C(=O)N[C@@H](CCCCN)C(=O)N2C[C@H](OCc3ccccc3)C[C@H]2C(=O)N[C@@H](Cc2c[nH]c3ccccc23)C(=O)N[C@@H](CCCCN)C(=O)N[C@@H](Cc2c[nH]c3ccccc23)C(=O)N1C [Example 14004] ({CH2CO}-Y[NMeA]DPHK[Hyp](Bn)WKW[NMeNle][NMeNle]ECG-NH2; thioether N-14)
- pIC50 [1]: 8.17 to 9.41
- pIC50 [2, 4]: 8.33 to 9.80

SMILES: CCCC[C@H]1C(=O)N(C)[C@@H](CCCC)C(=O)N[C@@H](CCCN)C(=O)N[C@H](C(=O)NCC(N)=O)CSCC(=O)N[C@@H](Cc2ccc(O)cc2)C(=O)N2CCC[C@H]2C(=O)N[C@@H](CC(=O)O)C(=O)N2CCC[C@H]2C(=O)N[C@@H](CN)C(=O)N[C@@H](CCC(=O)O)C(=O)N2C[C@H](O)C[C@H]2C(=O)N[C@@H](Cc2c[nH]c3ccccc23)C(=O)N[C@@H](CCN)C(=O)N[C@@H](Cc2csc3ccccc23)C(=O)N1C [Example 1193] ({CH2CO}-YPDP[Dap]E[Hyp]W[Dab][Bta][NMeNle][NMeNle][Orn]CG-NH2; thioether N-14)
- pIC50 [1]: 8.17 to 9.41
- pIC50 [2, 3]: 8.33 to 9.80

SMILES: CCCC[C@H]1C(=O)N(C)CC(=O)N[C@@H](CC(=O)O)C(=O)N[C@@H](C(C)C)C(=O)N(C)[C@@H](Cc2ccccc2)C(=O)N[C@@H](Cc2ccc(O)cc2)C(=O)N(C)CC(=O)N[C@@H](Cc2c[nH]c3ccccc23)C(=O)N[C@@H](Cc2ccc(C(F)(F)F)cc2)C(=O)N[C@@H](CC(C)C)C(=O)N[C@H](C(=O)NCC(N)=O)CSCC(=O)N[C@@H](Cc2ccccc2)C(=O)N(C)[C@@H](Cc2ccccc2)C(=O)N1C [Example 3138] ({CH2CO}-F[NMeF][NMeNle][Sar]DV[NMeF]Y[Sar]W[Phe(4-CF3)]LCG-NH2; thioether N-13)
- pIC50 [1]: < 7.52
- pIC50 [2, 3]: < 7.13

SMILES: CCCC[C@H]1C(=O)N(C)[C@@H](CCCC)C(=O)N[C@@H](CCCNC(=N)N)C(=O)N[C@@H](C(=O)NCC(N)=O)CSCC(=O)N[C@@H](Cc2cnc[nH]2)C(=O)N(C)[C@@H](C)C(=O)N[C@@H](CC(N)=O)C(=O)N2CCC[C@H]2C(=O)N[C@@H](Cc2cnc[nH]2)C(=O)N[C@@H](CC(C)C)C(=O)N(C)CC(=O)N[C@@H](Cc2c[nH]c3ccccc23)C(=O)N[C@@H](CO)C(=O)N[C@@H](Cc2c[nH]c3ccccc23)C(=O)N1C [Example 1072] ({CH2CO}-H[NMeA]NPHL[Sar]WSW[NMeNle][NMeNle]R[dC]G-NH2; thioether N-14)
- pIC50 [1]: < 7.52
- pIC50 [2, 3]: < 7.13
